In PubChem BioAssay (NCI):
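Method: 48-hour compound exposure of cells in 96-well plates, five concentrations, linear interpolation of endpoints. GI50 marks 50% less growth. The concentration for full growth arrest is given as TGI.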

Legend:
Assay in all cases: DTP human tumour cell line panel, 48 h
SN12C renal = test system: SN12C renal
SK-OV-3 ovarian = test system: SK-OV-3 ovarian
SK-MEL-2 melanoma = test system: SK-MEL-2 melanoma
A498 renal = test system: A498 renal
SW-620 colon = test system: SW-620 colon
HL-60(TB) leukemia = test system: HL-60(TB) leukemia
HCT-116 colon = test system: HCT-116 colon
ACHN renal = test system: ACHN renal
MDA-MB-231 breast = test system: MDA-MB-231 breast
MCF7 breast = test system: MCF7 breast

| SMILES | GI50 (SN12C renal) [µM] | TGI (SN12C renal) [µM] | GI50 (SK-OV-3 ovarian) [µM] | TGI (SK-OV-3 ovarian) [µM] | GI50 (SK-MEL-2 melanoma) [µM] | TGI (SK-MEL-2 melanoma) [µM] | GI50 (A498 renal) [µM] | TGI (A498 renal) [µM] | GI50 (SW-620 colon) [µM] | TGI (SW-620 colon) [µM] | GI50 (HL-60(TB) leukemia) [µM] | TGI (HL-60(TB) leukemia) [µM] | GI50 (HCT-116 colon) [µM] | TGI (HCT-116 colon) [µM] | GI50 (ACHN renal) [µM] | TGI (ACHN renal) [µM] | TGI (MDA-MB-231 breast) [µM] | TGI (MCF7 breast) [µM] | GI50 (MDA-MB-231 breast) [µM] | GI50 (MCF7 breast) [µM] |
| --- | --- | --- | --- | --- | --- | --- | --- | --- | --- | --- | --- | --- | --- | --- | --- | --- | --- | --- | --- | --- |
| C1C[OH+]CCNCC[OH+]CC[OH+]CCN1.[Cl-].[Pt+4] | > 100 | > 100 | > 100 | > 100 | > 100 | > 100 | > 100 | > 100 | > 100 | > 100 | > 100 | > 100 | > 100 | > 100 | > 100 | > 100 | – | – | – | – |
| COC(=O)OCC1OC(N2C(=O)NC(=O)C(Br)C2N=[N+]=[N-])CC1OC(=O)OC (stereo not drawn) | – | > 100 | – | > 100 | – | – | – | – | – | > 100 | – | – | – | > 100 | – | > 100 | – | – | – | – |
| CCOC(=N)CC(=O)Nc1cccc(C)c1C | – | > 100 | – | > 100 | – | > 100 | – | > 100 | – | > 100 | – | > 100 | – | > 100 | – | > 100 | – | – | – | – |
| CC1(C)O/C(=C\c2ccccc2)C(=O)/C(=C/c2ccccc2)O1 | – | > 100 | – | > 100 | – | 56.7 | – | > 100 | – | > 100 | – | 29.4 | – | > 100 | – | > 100 | – | – | – | – |
| CCOC(=O)c1c[nH]c2oc(/C=N/N3CC(CN4CCOCC4)OC3=O)cc2c1=O (stereo not drawn) | – | > 100 | – | > 100 | – | > 100 | – | – | – | > 100 | – | > 100 | – | > 100 | – | > 100 | > 100 | > 100 | – | – |
| COC(=O)CCC(=O)CC1CC(=O)C2CCCN12 (stereo not drawn) | – | > 100 | – | > 100 | – | > 100 | – | > 100 | – | > 100 | – | > 100 | – | > 100 | – | > 100 | – | – | – | – |
| Nc1nc(CCl)nc(Nc2ccccc2)n1 | – | – | – | – | – | 44.1 | – | – | – | 46.3 | – | 11.2 | – | 43.5 | – | 66.1 | – | – | – | – |
| COc1ccc(C2c3cc(OC)c(OC)cc3C(Cc3ccc([N+](=O)[O-])cc3)C2c2ccc([N+](=O)[O-])cc2)cc1OC (stereo not drawn) | – | > 100 | – | – | – | > 100 | – | > 100 | – | > 100 | – | > 100 | – | > 100 | – | > 100 | – | – | – | – |
| C=C1C(=O)O[C@H]2/C=C(/C)C3=CC(=O)[C@@](C)(C[C@@H](OC(=O)/C(C)=C\C)C12)O3 (stereo partly drawn) | – | 3.37 | – | 26 | – | 16.6 | – | > 41.4 | – | – | – | – | – | 1.11 | – | 0.958 | 11.5 | – | – | – |
| O=S1OC2(c3ccccc3-c3ccccc32)c2ccccc21 (stereo not drawn) | – | > 100 | – | > 100 | – | – | – | > 100 | – | > 100 | – | > 100 | – | > 100 | – | > 100 | – | – | – | – |
| O=C(Nc1ccc(CO)cc1)c1coc2ccccc2c1=O | > 100 | > 100 | > 100 | > 100 | – | – | – | – | > 100 | > 100 | > 100 | > 100 | > 100 | > 100 | > 100 | > 100 | > 100 | > 100 | > 100 | > 100 |
| CN1NC(=Nc2ccccc2)Sc2c1cnn(-c1ccccc1)c2=O | – | > 100 | – | > 100 | – | > 100 | – | > 100 | – | > 100 | – | > 100 | – | > 100 | – | > 100 | – | – | – | – |
| CN(C)C(=S)/N=c1\ss/c(=N\C(=S)N(C)C)n1-c1ccc(Cl)c(Cl)c1 | – | > 100 | – | > 100 | – | > 100 | – | > 100 | – | > 100 | – | > 100 | – | > 100 | – | > 100 | – | – | – | – |
| C[n+]1cc(C(O)c2ccc3c(c2)OCO3)c2ccccc2c1 (stereo not drawn) | – | > 100 | – | > 100 | – | 96.1 | – | > 100 | – | > 100 | – | – | – | > 100 | – | > 100 | – | – | – | – |
| Cc1cc(C)c(C2[C@H]3C(=O)N(c4ccc(Cc5ccc(N6C(=O)[C@@H]7ON(c8ccccc8)C(c8c(C)cc(C)cc8C)[C@@H]7C6=O)cc5)cc4)C(=O)[C@H]3ON2c2ccccc2)c(C)c1 (stereo partly drawn) | – | > 100 | – | > 100 | – | > 100 | – | > 100 | – | > 100 | – | > 100 | – | > 100 | – | > 100 | – | – | – | – |
| Cc1cc(C2CC(O)C(CO)O2)cc2c(=O)[nH]c(N)nc12 (stereo not drawn) | > 100 | > 100 | > 100 | > 100 | > 100 | > 100 | > 100 | > 100 | > 100 | > 100 | – | – | > 100 | > 100 | – | – | > 100 | > 100 | > 100 | > 100 |
| COC(=O)/C(C)=C/[N+](=O)[O-] | – | 41 | – | 33.4 | – | 38.7 | – | 43.3 | – | 26.8 | – | 40.1 | – | 20.8 | – | 35.5 | – | – | – | – |
| Cc1ccc(S(=O)(=O)NCCNc2nccc(-c3c(-c4ccc(F)cc4)nc4sccn34)n2)cc1 | 4.78 | > 100 | 12.4 | 40.3 | 7.55 | 38.2 | 2.33 | 14.4 | – | – | – | – | 3.88 | > 100 | 2.3 | > 100 | > 100 | > 100 | 11 | 1.48 |
| CN[C@@H](C)[C@H](NC)c1ccccc1 | – | > 100 | – | > 100 | – | – | – | – | – | > 100 | – | > 100 | – | > 100 | – | – | – | – | – | – |
| Cc1cc2c(cc1Cl)SC(=Nc1ccc(Cl)cc1)N(S(=O)(=O)c1ccccc1)S2(=O)=O | 13.8 | 28.7 | 12 | 44.4 | 11.8 | 27.6 | – | – | 5.63 | 17.4 | 11.7 | 32.7 | 9.78 | 21.5 | 1.95 | 10.5 | 16 | 22.4 | 2.79 | 6.05 |
| O=C1c2ccc3c4ccccc4n(Cc4ccccc4)c3c2C(=O)N1c1ccccc1 | – | 30.1 | – | > 55.6 | – | 46.5 | – | 45.9 | – | 20.1 | – | > 44.7 | – | 30 | – | > 50.5 | – | – | – | – |
